How the values were obtained:
JAK1 = biological target: T1, JAK1 (Homo sapiens, UniProt P23458); assay: JAK1 microfluidic kinase assay (Caliper EZ Reader II, FAM labeled peptide substrate); type: biochemical
T1 construct: purchased Carna Biosciences
Method in brief: (§1)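 Activity measured in 50 mM HEPES, 0.01% Brij35, 10 mM MgCl2, 2 mM DTT by microfluidic separation of phosphorylated FAM peptide. Enzyme conditions set for 10% substrate conversion.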

JAK2 = biological target: T2, JAK2 (Homo sapiens, UniProt O60674); assay: JAK2 microfluidic kinase assay (Caliper EZ Reader II, FAM labeled peptide substrate); type: biochemical
T2 construct: purchased Carna Biosciences
Method in brief: as §1

JAK2V617F = biological target: T3, JAK2V617F (Homo sapiens, UniProt O60674, V617F); assay: JAK2V617F microfluidic kinase assay (Caliper EZ Reader II, FAM labeled peptide substrate); type: biochemical; conditions: JAK2V617F 2.5 nM, 1 mM ATP
T3 construct: purchased Carna Biosciences
Method in brief: as §1

TYK2 = biological target: T4, TYK2 (Homo sapiens, UniProt P29597); assay: TYK2 microfluidic kinase assay (Caliper EZ Reader II, FAM labeled peptide substrate); type: biochemical
T4 construct: purchased Carna Biosciences
Method: Compounds were tested against JAK1, JAK2, JAK2V617F and TYK2. Assay Formats: JAK activity was determined in the reaction buffer 50 mM HEPES, 0.01% Brij35, 10 mM MgCl2, 2 mM DTT by a microfluidic assay. The phosphorylation of a FAM labeled peptide substrate was monitored in the Caliper EZ Reader II (Perkin Elmer). The assay condition for each batch of enzyme (Carna Biosciences) was optimized to obtain 10% conversion rate of peptide substrate. The test compounds were dissolved in DMSO to a stock concentration of 10 mM. 3-fold serially diluted compounds with top concentration of 5 μM were pre-incubated with JAK1, JAK2, JAK2V617F or TYK2 at indicated concentrations for 10 min at ambient temperature. The final DMSO concentration of assay mixture was 1%. […] The reaction was stopped by adding 50 mM EDTA. The reaction time for JAK1, JAK2, JAK2V617F and TYK2 was 120 min, 20 min, 30 min and 10 min, respectively. […] And the well without compound but with equivalent DMSO was defined as no inhibition. The percent inhibition was calculated by the following formula. % Inhibition=(Conversionmax−Conversionsample)/(Conversionmax−Conversionmin)*100 • Conversionmax means the conversion rate in the positive well without addition of compound • Conversionmin means the conversion rate in the well without addition of enzyme • Conversionsample means the conversion rate of test compounds The dose-response (percent inhibition) curve was plotted and IC50 values were determined by GraphPad software.

[1] = Liver microsomes study, Phase I stability (HLM); type: in vitro ADME, human; conditions: pH 7.4; human liver microsomes 0.5 mg/mL, 1 μM test article; read-out: HLM Clint
Method: Commercially available liver microsomes (MsLM vendor: XENOTECH; RLM, DLM, MkL, HLM vendor: Corning) were used for study the Phase I stability of test articles. […] The reaction was initiated by addition of 80 μL of the NADPH regenerating system to 320 µL of each incubation mixture per time point. […] The 0-minute samples were prepared by addition of an 80 μL aliquot of each incubation mixture to 400 μL quench reagent to precipitate proteins. And then a 20 μL aliquot of the NADPH regenerating system was added. At 10, 30, and 90 minutes, the reaction will be stopped by the addition of cold acetonitrile solution containing tolbutamide and propanolol served as internal standard. The samples taken at all time points were centrifuged at 4000×g for 15 minutes. 80 μL of supernatant are taken into 96-well assay plates pre-added with 160 μL ultrapure water, and then analyzed by LC/MS/MS(Shimadzu LC30AD & API4000/API5000)). Concentrations of test articles, control compounds in the samples were determined by using LC/MS/MS) method. Plotting of the chromatograms and peak area integrations are carried out by Analyst (AB Sciex).
In the determination of the in vitro elimination constant, ke, of the control compounds, the analyte/internal standard peak area ratios will be converted to percentage remaining (% Remaining) with the following equation: […]
The slope was measured by the natural logarithm of the percentage of the residual compound and time, T½ and CLint were calculated according to the following formulas, V/M was equal to the 1/concentration of protein.

[2] = IC50 JAK1 (5 nM) (1 m MATP), JAK1 5 nM, 1 mM ATP
[3] = IC50 JAK2 ([…]) (1 mM ATP), 1 mM ATP
[4] = IC50 TYK2 ([…]) (1 mM ATP), TYK2 […], 1 mM ATP
[5] = IC50 JAK1 (10 nM) (Km ATP), JAK1 10 nM, Km ATP
[6] = IC50 JAK2 ([…]) (Km ATP), Km ATP

T3 sequence (O60674 whole entry V617F): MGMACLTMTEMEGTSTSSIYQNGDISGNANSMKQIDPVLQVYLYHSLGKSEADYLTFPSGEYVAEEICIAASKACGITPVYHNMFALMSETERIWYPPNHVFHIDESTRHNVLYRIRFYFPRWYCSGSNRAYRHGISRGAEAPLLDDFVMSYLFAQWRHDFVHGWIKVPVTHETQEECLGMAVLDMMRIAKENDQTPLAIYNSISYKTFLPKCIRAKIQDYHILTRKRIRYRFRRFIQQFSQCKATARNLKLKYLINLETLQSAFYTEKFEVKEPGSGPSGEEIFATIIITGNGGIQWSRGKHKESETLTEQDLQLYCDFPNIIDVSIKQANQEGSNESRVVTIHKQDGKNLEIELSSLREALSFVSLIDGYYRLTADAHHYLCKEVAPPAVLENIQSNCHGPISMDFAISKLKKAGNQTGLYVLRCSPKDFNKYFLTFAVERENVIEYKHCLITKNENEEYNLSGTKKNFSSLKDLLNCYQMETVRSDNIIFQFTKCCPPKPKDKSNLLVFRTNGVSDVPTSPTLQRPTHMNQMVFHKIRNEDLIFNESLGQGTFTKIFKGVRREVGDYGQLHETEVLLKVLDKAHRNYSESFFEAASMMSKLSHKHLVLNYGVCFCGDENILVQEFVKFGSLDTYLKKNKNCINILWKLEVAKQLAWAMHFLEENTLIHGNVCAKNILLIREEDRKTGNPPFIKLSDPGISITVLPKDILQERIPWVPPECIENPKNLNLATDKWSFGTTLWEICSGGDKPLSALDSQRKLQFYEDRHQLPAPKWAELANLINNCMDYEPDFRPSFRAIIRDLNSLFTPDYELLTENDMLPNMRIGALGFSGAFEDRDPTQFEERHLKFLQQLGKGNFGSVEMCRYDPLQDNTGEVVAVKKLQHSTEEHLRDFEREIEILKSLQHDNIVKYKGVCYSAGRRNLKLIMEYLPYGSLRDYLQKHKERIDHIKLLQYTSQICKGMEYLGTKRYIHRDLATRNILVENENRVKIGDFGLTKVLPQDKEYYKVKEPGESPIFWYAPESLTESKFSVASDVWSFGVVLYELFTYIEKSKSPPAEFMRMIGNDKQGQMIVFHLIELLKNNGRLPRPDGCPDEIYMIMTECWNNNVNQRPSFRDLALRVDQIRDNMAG
T1 sequence (P23458 whole entry): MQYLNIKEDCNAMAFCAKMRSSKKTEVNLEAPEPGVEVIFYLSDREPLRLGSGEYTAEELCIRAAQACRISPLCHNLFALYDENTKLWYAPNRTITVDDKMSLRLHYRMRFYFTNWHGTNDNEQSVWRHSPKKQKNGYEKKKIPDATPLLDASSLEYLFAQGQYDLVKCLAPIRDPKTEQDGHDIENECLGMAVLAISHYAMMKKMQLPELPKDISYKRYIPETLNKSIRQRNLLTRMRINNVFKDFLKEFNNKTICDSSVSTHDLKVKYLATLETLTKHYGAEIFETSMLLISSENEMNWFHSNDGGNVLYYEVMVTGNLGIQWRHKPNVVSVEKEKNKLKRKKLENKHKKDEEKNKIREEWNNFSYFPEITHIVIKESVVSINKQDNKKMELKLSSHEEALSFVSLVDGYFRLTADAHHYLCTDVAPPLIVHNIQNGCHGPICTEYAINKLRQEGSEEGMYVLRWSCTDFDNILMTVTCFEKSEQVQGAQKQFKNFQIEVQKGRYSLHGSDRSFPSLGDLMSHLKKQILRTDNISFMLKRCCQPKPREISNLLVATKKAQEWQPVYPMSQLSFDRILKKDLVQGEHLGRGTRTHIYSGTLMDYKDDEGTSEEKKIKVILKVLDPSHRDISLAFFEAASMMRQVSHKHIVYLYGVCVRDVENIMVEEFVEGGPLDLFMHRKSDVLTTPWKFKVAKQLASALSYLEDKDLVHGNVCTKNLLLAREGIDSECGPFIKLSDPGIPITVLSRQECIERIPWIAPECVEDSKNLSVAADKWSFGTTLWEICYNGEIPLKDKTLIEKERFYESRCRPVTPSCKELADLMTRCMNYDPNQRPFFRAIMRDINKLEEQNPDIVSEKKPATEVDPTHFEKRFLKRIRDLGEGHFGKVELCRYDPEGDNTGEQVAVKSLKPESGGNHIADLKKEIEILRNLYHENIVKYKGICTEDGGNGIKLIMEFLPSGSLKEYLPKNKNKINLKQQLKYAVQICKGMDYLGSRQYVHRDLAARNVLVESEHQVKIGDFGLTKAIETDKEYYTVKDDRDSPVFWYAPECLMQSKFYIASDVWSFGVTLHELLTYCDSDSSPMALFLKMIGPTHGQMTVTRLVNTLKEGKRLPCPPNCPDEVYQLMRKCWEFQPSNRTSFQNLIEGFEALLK
T4 sequence (P29597 whole entry): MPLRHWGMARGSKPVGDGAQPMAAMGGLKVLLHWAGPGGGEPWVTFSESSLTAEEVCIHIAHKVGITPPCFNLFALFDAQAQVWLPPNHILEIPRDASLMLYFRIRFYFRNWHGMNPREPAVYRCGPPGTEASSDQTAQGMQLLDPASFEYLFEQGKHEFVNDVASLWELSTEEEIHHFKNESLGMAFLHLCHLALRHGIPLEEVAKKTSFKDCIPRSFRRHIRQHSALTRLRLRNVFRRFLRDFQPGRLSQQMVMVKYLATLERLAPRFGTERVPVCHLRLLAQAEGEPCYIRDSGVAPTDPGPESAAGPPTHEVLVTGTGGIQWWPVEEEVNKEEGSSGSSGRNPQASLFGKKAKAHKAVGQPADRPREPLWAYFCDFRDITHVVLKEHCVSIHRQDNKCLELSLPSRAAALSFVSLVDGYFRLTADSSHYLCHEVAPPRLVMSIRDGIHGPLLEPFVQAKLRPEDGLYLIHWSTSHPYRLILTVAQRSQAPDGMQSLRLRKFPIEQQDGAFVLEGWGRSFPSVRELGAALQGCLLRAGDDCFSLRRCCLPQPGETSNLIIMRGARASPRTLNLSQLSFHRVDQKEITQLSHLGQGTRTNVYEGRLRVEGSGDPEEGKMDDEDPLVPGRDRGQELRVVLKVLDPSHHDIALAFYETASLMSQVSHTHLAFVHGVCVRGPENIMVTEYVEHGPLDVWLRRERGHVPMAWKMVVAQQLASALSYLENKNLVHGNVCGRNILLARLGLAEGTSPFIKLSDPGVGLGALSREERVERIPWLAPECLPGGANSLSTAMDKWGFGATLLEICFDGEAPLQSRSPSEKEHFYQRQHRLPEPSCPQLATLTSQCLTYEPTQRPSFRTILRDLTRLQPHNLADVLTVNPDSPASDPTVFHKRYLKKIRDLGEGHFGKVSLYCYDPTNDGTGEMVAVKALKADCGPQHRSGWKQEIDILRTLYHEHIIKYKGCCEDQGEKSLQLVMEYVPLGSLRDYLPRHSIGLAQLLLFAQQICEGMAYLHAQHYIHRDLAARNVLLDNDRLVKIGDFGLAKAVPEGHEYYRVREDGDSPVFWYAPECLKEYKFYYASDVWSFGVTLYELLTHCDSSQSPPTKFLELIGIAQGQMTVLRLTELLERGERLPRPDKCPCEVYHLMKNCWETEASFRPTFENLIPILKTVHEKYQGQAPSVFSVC
T2 sequence (O60674 whole entry): as the sequence (O60674 whole entry V617F) above, with F617V counted along it

IC50 (JAK1; [2]) [nM] | IC50 (JAK2; [3]) [nM] | IC50 (JAK2V617F) [nM] | IC50 (TYK2; [4]) [nM] | IC50 (JAK1; [5]) [nM] | IC50 (JAK2; [6]) [nM] | IC50 (TYK2; IC50 TYK2 (10 nM) (Km ATP), TYK2 10 nM, Km ATP) [nM] | microsomal CLint at 1 μM [1] [µL/min/mg] | SMILES
69.7 | 293 | 658 | 198 |  |  |  |  | C[C@@H](C#N)NC(=O)c1ccc(-c2nc(Nc3cnn(CC#N)c3)ncc2F)cc1 [Example 53, (S)—N-(1-cyanoethyl)-4-(2-((1-(cyanomethyl)-1H-pyrazol-4-yl)amino)-5-fluoropyrimidin-4-yl)benzamide]
10.9 | < 0.25 | 3.55 | 17.4 | 2.22 | < 0.25 | 0.51 |  | Cc1cnc(Nc2cnn(C3CCN(C(=O)C(C)(C)C)CC3)c2)nc1-c1ccc(C(=O)NCC#N)cc1 [Example 21, N-(Cyanomethyl)-4-(5-methyl-2-((1-(1-pivaloylpiperidin-4-yl)-1H-pyrazol-4-yl)amino)pyrimidin-4-yl)benzamide]
7.13 | 0.81 | 57.2 | 38.2 |  |  |  |  | Cc1cnc(Nc2cnn(C3CCN(C)CC3)c2)nc1-c1ccc(C(=O)NCC#N)cc1 [Example 49, N-(cyanomethyl)-4-(5-methyl-2-((1-(1-methylpiperidin-4-yl)-1H-pyrazol-4-yl)amino)pyrimidin-4-yl)benzamide]
19.6 | 46.5 | 115 | 83 | 3.32 | 1.3 |  |  | Cc1cnc(Nc2cnn(C)c2)nc1-c1ccc(C(=O)NCC#N)cc1 [Example 11, N-(cyanomethyl)-4-(5-methyl-2-((1-methyl-1H-pyrazol-4-yl)amino)pyrimidin-4-yl)benzamide]
23.6 |  | 1.32 |  |  |  |  | 113 | C[C@@H](C#N)NC(=O)c1ccc(-c2nc(Nc3cnn(C4CCN(C(=O)C(C)(C)C)CC4)c3)ncc2Cl)cc1 [Example 99, (S)-4-(5-Chloro-2-((1-(1-pivaloylpiperidin-4-yl)-1H-pyrazol-4-yl)amino)pyrimidin-4-yl)-N-(1-cyanoethyl)benzamide]
22.7 | 0.58 | 7.74 | 370 |  |  |  |  | CC(C)(C#N)CNC(=O)c1ccc(-c2nc(Nc3cnn(C4CCOCC4)c3)ncc2Cl)cc1 [Example 80, 4-(5-Chloro-2-((1-(tetrahydro-2H-pyran-4-yl)-1H-pyrazol-4-yl)amino)pyrimidin-4-yl)-N-(2-cyano-2-methylpropyl)benzamide]
5.55 | 25.2 | 53.5 | 42.7 |  |  |  |  | C[C@@H](C#N)NC(=O)c1ccc(-c2nc(Nc3cnn(CC#N)c3)ncc2Cl)cc1 [Example 46, (S)-4-(5-Chloro-2-((1-(cyanomethyl)-1H-pyrazol-4-yl)amino)pyrimidin-4-yl)-N-(1-cyanoethyl)benzamide]
18.3 |  | 51.7 | 70 |  |  |  |  | Cc1cnc(Nc2cnn(C3CCN(C)C(=O)C3)c2)nc1-c1ccc(C(=O)NCC#N)cc1 (stereo not shown) [Example 66, N-(cyanomethyl)-4-(5-methyl-2-((1-(1-methyl-2-oxopiperidin-4-yl)-1H-pyrazol-4-yl)amino)pyrimidin-4-yl)benzamide]
5.67 | 36.6 |  | 50.6 |  |  |  |  | C[C@@H](C#N)NC(=O)c1ccc(-c2nc(Nc3cnn(CC(N)=O)c3)ncc2Cl)cc1 [Example 47, (S)-4-(2-((1-(2-amino-2-oxoethyl)-1H-pyrazol-4-yl)amino)-5-chloropyrimidin-4-yl)-N-(1-cyanoethyl)benzamide]
5.17 | 10.6 | 33.3 | 31.4 |  |  |  |  | Cc1cnc(Nc2cnn(C3CC3)c2)nc1-c1ccc(C(=O)N[C@@H](C)C#N)cc1 [Example 94, (S)—N-(1-cyanoethyl)-4-(2-((1-cyclopropyl-1H-pyrazol-4-yl)amino)-5-methylpyrimidin-4-yl)benzamide]
16.7 | < 0.25 |  | 0.55 |  |  |  |  | C[C@@H](C#N)NC(=O)c1ccc(-c2nc(Nc3cnn(C4CC(C)(C)OC(C)(C)C4)c3)ncc2Cl)cc1 [Example 206, (S)-4-(5-Chloro-2-((1-(2,2,6,6-tetramethyltetrahydro-2H-pyran-4-yl)-1H-pyrazol-4-yl)amino)pyrimidin-4-yl)-N-(1-cyanoethyl)benzamide]
14.2 | 0.71 |  | 24.2 |  |  |  |  | Cc1cnc(Nc2cnn(C3C[C@@H](C)N[C@H](C)C3)c2)nc1-c1ccc(C(=O)N[C@@H](C)C#N)cc1 (stereo partly drawn) [Example 230, N—((S)-1-cyanoethyl)-4-(2-((1-(trans-2,6-dimethylpiperidin-4-yl)-1H-pyrazol-4-yl)amino)-5-methylpyrimidin-4-yl)benzamide]
4.02 | 44 |  | 85 |  |  |  |  | C[C@@H](C#N)NC(=O)c1ccc(-c2nc(Nc3cnn(CCC#N)c3)ncc2Cl)cc1 [Example 189, (S)-4-(5-Chloro-2-((1-(2-cyanoethyl)-1H-pyrazol-4-yl)amino)pyrimidin-4-yl)-N-(1-cyanoethyl)benzamide]
2.45 | 22.5 |  | 14.7 |  |  |  |  | CCC[C@@H](C#N)NC(=O)c1ccc(-c2nc(Nc3cnn(CCO)c3)ncc2C)cc1 [Example 192, (S)—N-(1-cyanobutyl)-4-(2-((1-(2-hydroxyethyl)-1H-pyrazol-4-yl)amino)-5-methylpyrimidin-4-yl)benzamide]
34.3 | 210 |  | 304 |  |  |  |  | Cc1cnc(Nc2cnn(CC#N)c2)nc1-c1ccc(C(=O)N[C@H](C)C#N)cc1 [Example 54, (R)—N-(1-cyanoethyl)-4-(2-((1-(cyanomethyl)-1H-pyrazol-4-yl)amino)-5-methylpyrimidin-4-yl)benzamide]
1.88 | 0.91 |  | 33.3 |  |  |  |  | Cc1cnc(Nc2cnn(C3CCN(CCO)CC3)c2)nc1-c1ccc(C(=O)N[C@@H](C)C#N)cc1 [Example 204, (S)—N-(1-cyanoethyl)-4-(2-((1-(1-(2-hydroxyethyl)piperidin-4-yl)-1H-pyrazol-4-yl)amino)-5-methylpyrimidin-4-yl)benzamide]
10.4 | 54.8 |  | 62.3 |  |  |  |  | COC[C@@H](C#N)NC(=O)c1ccc(-c2nc(Nc3cnn(CCO)c3)ncc2C)cc1 [Example 221, (R)—N-(1-cyano-2-methoxyethyl)-4-(2-((1-(2-hydroxyethyl)-1H-pyrazol-4-yl)amino)-5-methylpyrimidin-4-yl)benzamide]
1.48 | 0.51 |  | 2.22 |  |  |  |  | CCC[C@@H](C#N)NC(=O)c1ccc(-c2nc(Nc3cnn(C4CCNCC4)c3)ncc2C)cc1 [Example 175, (S)—N-(1-Cyanobutyl)-4-(5-methyl-2-((1-(piperidin-4-yl)-1H-pyrazol-4-yl)amino)pyrimidin-4-yl)benzamide]
23.6 | 83.4 | 136 | 111 |  |  |  |  | CC[C@@H](C#N)NC(=O)c1ccc(-c2nc(Nc3cnn(C4CCN(C)CC4)c3)ncc2F)cc1 [Example 59, (S)—N-(1-cyanopropyl)-4-(5-fluoro-2-((1-(1-methylpiperidin-4-yl)-1H-pyrazol-4-yl)amino)pyrimidin-4-yl)benzamide]

Reference: patent publication US12595253B2, “Benzamides of pyrazolylamino-pyrimidinyl derivatives, and compositions and methods thereof” (LYNK PHARMACEUTICALS CO. LTD., priority 2019, dated 2026)
